One data set addresses SARS-CoV-2 M^pro (Severe acute respiratory syndrome coronavirus 2, UniProt P0DTD1). As to the kind of experiment: SARS-CoV-2 M^pro inhibition assay (FRET substrate). The format is biochemical. The note with it: for IC50 / Ki: 0.2 μM enzyme, 20 μM substrate, pH 7, DMSO 2.5%; for IC50: equivalent to Ki^app; for Ki: intrinsic inhibition constant; for anti-M^pro inhibitory activity (in words): first-line screening at 100 μM. As for the experimental part:
A continuous assay based on Förster resonance energy transfer (FRET) to measure in vitro the catalytic activity of M^pro was implemented by using the substrate (Dabcyl)KTSAVLQSGFRKME(Edans)-NH2 (Biosyntan GmbH, Berlin, Germany) The enzymatic reaction was initiated by adding substrate at 20 μM (final concentration) to the enzyme at 0.2 μM (final concentration) in a final volume of 100 μL. The reaction buffer was sodium phosphate 50 mM, pH 7, NaCl 150 mM, and DMSO 2.5%. Fluorescence emission was measured in a FluoDia T70 microplate reader (Photon Technology International, Birmingham, NJ, USA) for 20 min (excitation wavelength, 380 nm; emission wavelength, 500 nm). The initial slope of the time evolution curve of the fluorescence emission signal provided a direct quantification of the enzymatic activity.
The in vitro inhibition potency of the compounds against M^pro was assessed through the estimation of the inhibition constant, Ki, and the half-maximal inhibitory concentration, IC50, from experimental inhibition curves. Inhibition curves were obtained by measuring the enzyme activity (at fixed 0.2 μM enzyme concentration and fixed 20 μM substrate concentration) as a function of compound concentration (serial 2-fold dilution from 125 µM to 0 μM), maintaining the percentage of DMSO (2.5%) constant. The enzymatic activity was quantitated as the initial slope of the substrate fluorescence emission time evolution curve, and was plotted as a function of compound concentration. The ratio between the activity (slope) in the presence and absence of the compound provides the residual percentage of activity at a given compound concentration. Nonlinear regression analysis employing a simple inhibition model (considering inhibitor depletion due to enzyme binding) allowed us to estimate the apparent inhibition constant, Ki^app, for each compound according to Equation (1):(1) [EI]=1/2([I]T+[E]T+Kiapp−([I]T+[E]T+Kiapp)^2−4[E]T[I]T)[I]=[I]T−[EI]=1/2([I]T−[E]T−Kiapp+([I]T+[E]T+Kiapp)^2−4[E]T[I]T)v([I])/v([I]=0)=1−[EI]/[E]T=1/1+[I]/Kiapp, where [EI] is the concentration of the enzyme–inhibitor complex, [E]T and [I]T are the total concentrations of the enzyme and the inhibitor, Ki^app is the apparent inhibition constant for the inhibitors (quercetin and derivatives), [I] is the concentration of the free inhibitor, and v is the initial slope of the enzymatic activity trace at a given (free) inhibitor concentration [I] (or total inhibitor concentration [I]T). No approximation for the free inhibitor concentration (e.g., assuming to be equal to the total inhibitor concentration) was made, thus having general validity for any total enzyme and inhibitor concentration and any value of the inhibition constant (even for tight-binding inhibitors). In addition, if the inhibitor acts through a purely competitive mechanism, the previous equation can be substituted by Equation (2):(2) v([I])/v([I]=0)=1/1+[I]/Kiapp=1/1+[I]/Ki(1+[S]/Km), where Ki is the intrinsic (i.e., substrate concentration-independent) inhibition constant, Km is the Michaelis–Menten constant for the enzyme–substrate interaction, and [S] is the substrate concentration. Because Km and [S] are known, the intrinsic inhibition constant can be determined. Furthermore, approximating the free compound concentration by the total compound concentration and neglecting ligand depletion, the Ki^app in Equation (2) is equivalent to the IC50, as reported in Table 3. However, it should be emphasized that the IC50 is an assay-dependent inhibition potency index (among other parameters, it depends on the enzyme and substrate concentrations, as well as on the Km); thus, the intrinsic inhibition constant is a better inhibition potency index. Uncertainties have been reported as 95% profile likelihood asymmetric confidence intervals, as especially recommended for equilibrium constants (i.e., binding association/dissociation constants and inhibition constants).

The test system of data set [1] is SARS-CoV-2. The settings on record: for Inhibition of the virus-caused cytopathic effect (CPE) / toxicity in the cellular infection model (in words): Vero cells; for Inhibition of the virus-caused cytopathic effect (CPE): 2 days; for toxicity in the cellular infection model (in words) / precipitation in the medium (in words): 100-10 µM; for precipitation in the medium (in words): culture medium; for SARS-CoV-2-related CPE reduction (in words): tested at 100, 75, 50, 25 and 10 µM, judged at non-toxic concentrations.

Data set [2] deals with SARS-CoV-2. As to the kind of experiment: Inhibition of SARS-CoV-2 replication in Vero cells by RT-qPCR. The format is cell-based. The settings on record: Vero cells; Figure S1. For orientation: Real-time PCR tracks product formation cycle by cycle.

Here are results for 15 compounds from article PMC8268238, “Seleno-Functionalization of Quercetin Improves the Non-Covalent Inhibition of M^pro and Its Antiviral Activity in Cells against SARS-CoV-2” (International Journal of Molecular Sciences, 2021).

Read-outs that look alike come from different tables or passages of the source.

For orientation: IC50 means the concentration that gives 50% inhibition. A word on the Ki: it is the dissociation constant of the complex between target and ligand, obtained from inhibition or displacement. Low values mean a stronger hold on the target, high ones a looser hold on the target. For orientation: melting point means the temperature, or range, at which the solid turns liquid. `CCCC[Se]c1c(O)cc(O)c2c(=O)c(O)c(-c3ccc(O)c(O)c3)oc12` [2c, 2-(3,4-Dihydroxyphenyl)-3,5,7-trihydroxy-8-(butylselenyl)-4H-chromen-4-one] returned a melting point of 159 to 163 °C. On SARS-CoV-2 M^pro, the IC50 is 24 µM and the affinity corresponds to a Ki of 8.6 µM.
Consider `O=c1c(O)c(-c2ccc(O)c(O)c2)oc2c([Se]c3ccccc3)c(O)c([Se]c3ccccc3)c(O)c12` [compound 3, 2-(3,4-Dihydroxyphenyl)-3,5,7-trihydroxy-6,8-bis(phenylselanyl)-4H-chromen-4-one], for which the melting point fell in the range of 206 to 210 °C. At SARS-CoV-2 M^pro, the IC50 is 13 µM and the Ki turned out to be 4.6 µM. Moreover, the “Inhibition of the virus-caused cytopathic effect (CPE)” value (from here on “Inhibition … (CPE)”) in the data set with SARS-CoV-2 [1] (10 µM) is “-”. Besides, in the data set with SARS-CoV-2 [1] (25 µM), the “Inhibition … (CPE)” value is given as “-”. Also, in the data set on SARS-CoV-2 [1] (50 µM), the “Inhibition … (CPE)” value is recorded as “tox/-”. In addition, in the data set with SARS-CoV-2 [1] (75 µM), the “Inhibition … (CPE)” value is “tox”. Further, the “Inhibition … (CPE)” value in the data set on SARS-CoV-2 [1] (100 µM) was “tox”.
Take `COc1ccc([Se]c2c(O)cc(O)c3c(=O)c(O)c(-c4ccc(O)c(O)c4)oc23)cc1` [2e, 2-(3,4-Dihydroxyphenyl)-3,5,7-trihydroxy-8-((4-methoxyphenyl)selanyl)-4H-chromen-4-one]: the melting point fell in the range of 194 to 197 °C. Further, at SARS-CoV-2 M^pro, the IC50 was determined as 3 µM and the Ki was 1.1 µM. Besides, in the data set with SARS-CoV-2 [1] (10 µM), the “Inhibition … (CPE)” value is “-”. Also, the “Inhibition … (CPE)” value with SARS-CoV-2 [1] (25 µM) is reported as “-”. Besides, in the data set on SARS-CoV-2 [1] (50 µM), the “Inhibition … (CPE)” value is listed as “tox/-”. Besides, in the data set on SARS-CoV-2 [1] (75 µM), the “Inhibition … (CPE)” value is “tox”. For the same compound, the “Inhibition … (CPE)” value with SARS-CoV-2 [1] (100 µM) is reported as “tox”.
Take `Cc1ccccc1[Se]CCOc1cc(O)c2c(=O)cc(-c3ccccc3)oc2c1`: the melting point was in the range of 123.9 to 127.4 °C.
`O=c1cc(-c2ccccc2)oc2cc(OCC[Te]c3ccc(Cl)cc3)cc(O)c12` [compound 9, 7-{2-[(4-Chlorophenyl)tellanyl]ethoxy}-5-hydroxy-2-phenyl-4H-chromen-4-one] came in with a melting point of 140.3 to 143 °C. Moreover, on SARS-CoV-2 M^pro, the IC50 was found to be 2.2 µM and the Ki is 0.77 µM. The “Inhibition … (CPE)” value in the data set with SARS-CoV-2 [1] (10 µM) is given as “-”. In the data set with SARS-CoV-2 [1] (25 µM), the “Inhibition … (CPE)” value is “-”. For the same compound, the “Inhibition … (CPE)” value in the data set with SARS-CoV-2 [1] (75 µM) is listed as “prec/-”. Besides, the “Inhibition … (CPE)” value in the data set on SARS-CoV-2 [1] (100 µM) is listed as “prec/tox”. In the data set on SARS-CoV-2 [1], the “toxicity in the cellular infection model (in words)” value is reported as “toxic”, the “precipitation in the medium (in words)” value is recorded as “precipitated” and the “SARS-CoV-2-related CPE reduction (in words)” value was “No CPE reduction”.
In the case of `O=c1cc(-c2ccccc2)oc2cc(OCC[Se]c3ccc(F)cc3)cc(O)c12`, the melting point lay in the range of 171.1 to 173.7 °C.
Regarding `O=c1c(O)c(-c2ccc(O)c(O)c2)oc2c([Se]c3ccccc3)c(O)cc(O)c12` [2a, 2-(3,4-Dihydroxyphenyl)-3,5,7-trihydroxy-8-(phenylselanyl)-4H-chromen-4-one], the melting point was 211 to 213 °C. On SARS-CoV-2 M^pro, the IC50 came to 5.1 µM and the affinity corresponds to a Ki of 1.8 µM. The “inhibition of SARS-CoV-2 replication by RT-qPCR (in words)” value in the data set on SARS-CoV-2 [2] is on record as “did not indicate any inhibition”. In addition, the “Inhibition … (CPE)” value in the data set with SARS-CoV-2 [1] (10 µM) is reported as “-”. For the same compound, in the data set on SARS-CoV-2 [1] (25 µM), the “Inhibition … (CPE)” value is “-”. For the same compound, in the data set with SARS-CoV-2 [1] (50 µM), the “Inhibition … (CPE)” value is listed as “+”. Besides, the “Inhibition … (CPE)” value in the data set on SARS-CoV-2 [1] (75 µM) is recorded as “tox”. In the data set on SARS-CoV-2 [1] (100 µM), the “Inhibition … (CPE)” value is reported as “tox”. In addition, the “SARS-CoV-2-related CPE reduction (in words)” value in the data set with SARS-CoV-2 [1] is “inhibited the development of the CPE”.
As for `Cc1cc(C)c([Se]CCOc2cc(O)c3c(=O)cc(-c4ccccc4)oc3c2)c(C)c1`, the melting point lay in the range of 135.7 to 138.4 °C.
Compound `O=c1cc(-c2ccccc2)oc2c([Se]c3ccccc3)c(O)c([Se]c3ccccc3)c(O)c12` [compound 6, 5,7-Dihydroxy-2-phenyl-6,8-bis(phenylselanyl)-4H-chromen-4-one] returned a melting point of 188.7 to 190.6 °C. Besides, at SARS-CoV-2 M^pro, the concentration for half-maximal inhibition (IC50) is above 100 µM, the Ki is above 100 µM and the “anti-M^pro inhibitory activity (in words)” value was “devoid of any noticeable anti-M^pro inhibitory activity”.
Consider `O=c1cc(-c2ccccc2)oc2cc(OCC[Se]Cc3ccccc3)cc(O)c12`, for which the melting point was in the range of 115.4 to 118.2 °C.
As for `O=c1cc(-c2ccccc2)oc2cc(OCC[Te]c3ccccc3)cc(O)c12` [compound 8, 5-Hydroxy-2-phenyl-7-[2-(phenyltellanyl)ethoxy]-4H-chromen-4-one], the melting point fell in the range of 128 to 129 °C. Also, on SARS-CoV-2 M^pro, the IC50 was 3.3 µM and the Ki turned out to be 1.1 µM. Moreover, the “Inhibition … (CPE)” value in the data set with SARS-CoV-2 [1] (75 µM) is recorded as “prec/tox”. Moreover, in the data set with SARS-CoV-2 [1] (100 µM), the “Inhibition … (CPE)” value is on record as “prec/tox”. Also, in the data set on SARS-CoV-2 [1], the “toxicity in the cellular infection model (in words)” value was “toxic”, the “precipitation in the medium (in words)” value was “precipitated” and the “SARS-CoV-2-related CPE reduction (in words)” value is “No CPE reduction”.
As for `COc1ccccc1[Se]CCOc1cc(O)c2c(=O)cc(-c3ccccc3)oc2c1`, the melting point is 132.9 to 135.6 °C.
As to `O=c1cc(-c2ccccc2)oc2cc(OCC[Se]c3ccccc3)cc(O)c12` [7a, 5-Hydroxy-2-phenyl-7-(2-(phenylselanyl)ethoxy)-4H-chromen-4-one], the melting point was in the range of 155 to 156 °C. On SARS-CoV-2 M^pro, the IC50 was above 100 µM and the Ki was above 100 µM.
Compound `CCCCCCCCCC[Se]c1c(O)cc(O)c2c(=O)c(O)c(-c3ccc(O)c(O)c3)oc12` [2b, 2-(3,4-Dihydroxyphenyl)-3,5,7-trihydroxy-8-(decylselenyl)-4H-chromen-4-one] returned a melting point of 155 to 159 °C. On SARS-CoV-2 M^pro, the IC50 is above 100 µM, the Ki was above 100 µM and the “anti-M^pro inhibitory activity (in words)” value is “devoid of any noticeable anti-M^pro inhibitory activity”.
As for `O=c1cc(-c2ccccc2)oc2cc(OCC[Se]c3cccc(C(F)(F)F)c3)cc(O)c12`, the melting point is 154.1 to 157.7 °C.
